# Data published in US20070243270A1, “METHODS AND KITS FOR REDUCING CELLULAR DAMAGE, INHIBITING FREE RADICAL PRODUCTION, AND SCAVENGING FREE RADICALS IN MAMMALS” (priority 2003, published 2007).
# Where two headings read alike, the source gives them in different places.
# Experiments:
# codon 61 of c-Ha-ras = test: DMBA-induced Ha-ras codon 61 mutation in mouse skin DNA; format: in vivo, female SENCAR mice; details: acetone neg. control 3.05
# Protocol: One of the best studied in vivo models for evaluation of environmental stress response effects on DNA and cell damage is the mouse skin system in which the skin is treated with a chemical compound known to damage DNA and cell structure and function. […] Exp. Med. Biol. 1995, 369, 167). […] Following dosing and treatment, skin DNA and cell structure and function were evaluated using three endpoints, epidermal hyperplasia, 8-OH-dG formation, and Ha-ras mutation. Each method is described briefly below. Seven week old, pathogen free, female SENCAR mice were purchased from the National Cancer Institute (NCI, Frederick, Md.). Mice were randomized by weight and separated into groups (n=5 mice per group). Experimental groups of mice were treated on shaved dorsal skin with antioxidants, 15 min prior to treatment with DMBA (25 μg per treatment). […] Epidermal thickness was determined in each animal from at least 20 randomly selected sites per animal using formalin-fixed, paraffin-embedded 5 μm sections stained with hematoxylin and eosin. […] DNA isolated from freshly-frozen tissues of 5 mice per group was analyzed for […] of c-Ha-ras by PCR analysis. […] The ratio of the amount of wild type DNA to mutated DNA was determined by quantifying intensity of 32P labeling on autoradiograms. […]
# 3PC cells = test: ATP-bioluminescence assay, reactive oxygen species-stimulated growth of cells; format: cell-based
# [1] = system: DMBA-induced epidermal hyperplasia; test: Inhibition of DMBA-induced epidermal hyperplasia in mouse skin; format: in vivo, female SENCAR mice
# Protocol: One of the best studied in vivo models for evaluation of environmental stress response effects on DNA and cell damage is the mouse skin system in which the skin is treated with a chemical compound known to damage DNA and cell structure and function. […] Exp. Med. Biol. 1995, 369, 167). […] Following dosing and treatment, skin DNA and cell structure and function were evaluated using three endpoints, epidermal hyperplasia, 8-OH-dG formation, and Ha-ras mutation. Each method is described briefly below. Seven week old, pathogen free, female SENCAR mice were purchased from the National Cancer Institute (NCI, Frederick, Md.). Mice were randomized by weight and separated into groups (n=5 mice per group). Experimental groups of mice were treated on shaved dorsal skin with antioxidants, 15 min prior to treatment with DMBA (25 μg per treatment). In topical experiments, different doses, i.e., 0.5, 1.0, 2.0, and/or 4.0 mg, of test or reference antioxidants per mouse were applied topically twice weekly for a total of 8 treatments (4 weeks). […] Negative control groups were treated with vehicle (acetone) only. […] Most antioxidants were administered in acetone. Antioxidants that were not soluble in acetone to the desired concentration, were dissolved in the necessary volume: mixture of acetone and water or ethanol. All topical treatments were administered in a final volume of 0.2 mL. […] The same control groups were maintained. Both positive and negative control groups were fed a standard AIN-93G diet (i.e., not supplemented with antioxidants). […] At sacrifice the shaved dorsal skin section was removed. […] Epidermal thickness was determined in each animal from at least 20 randomly selected sites per animal using formalin-fixed, paraffin-embedded 5 μm sections stained with hematoxylin and eosin. The remaining skin was frozen in liquid nitrogen. All frozen sections were stored at −70 C until analysis for isolation of DNA.
# [2] = 3PC cells, read-out: Estimated IC50 (mg/L) in ATP Bioluminescence Assay
SMILES,Ha-ras Formation (codon 61 of c-Ha-ras; topical 4 mg + DMBA),IC50 (3PC cells; [2]) [mg/L],"IC50 (3PC cells; ATP bioluminescence, calculated on ascorbic acid content, read-out: Estimated IC50 Based on vitamin C content) [mg/L]","IC50 (3PC cells; ATP bioluminescence, read-out: Estimated IC50 based on weight) [mg/L]",Inhibition of DMBA-Induced Epidermal Hyperplasia ([1]; dietary 1.0%) [%],Inhibition of DMBA-Induced Epidermal Hyperplasia ([1]; dietary 5.0%) [%],Inhibition of DMBA-Induced Epidermal Hyperplasia ([1]; topical application 0.5 mg) [%],Inhibition of DMBA-Induced Epidermal Hyperplasia ([1]; topical application 2.0 mg) [%],Ha-ras Formation (codon 61 of c-Ha-ras; DMBA only (pos. control))
"O=C1O[C@H]([C@@H](O)CO)C(O)=C1O [Ascorbic Acid, L-ascorbic acid]",6.19,4.6,4.6,4.6,83,86,66,66,
"Cc1c2ccccc2c(C)c2c1ccc1ccccc12 [DMBA, dimethylbenzanthracene]",,,,,,,,,18.39
"CC1=C[C@H](O)CC(C)(C)[C@H]1/C=C/C(C)=C/C=C/C(C)=C/C=C/C=C(C)/C=C/C=C(C)/C=C/C1=C(C)C[C@@H](O)CC1(C)C [Lutein, lutein]",,70.8,,,,,,,
